Data reported in ChEMBL document CHEMBL5463722, “Data for DCP probe BI-5524” (2023).
Activity calls are given as the source filed them. No cut-off for these calls is given here.

Key:
[1] = molecular target: Endothelin receptor type B (Homo sapiens) (UniProt P24530); assay: Activity against ETB/H in the Eurofins SafetyScreen44 (BI) by Radioactive Assay (Old_Cerep_20); conditions: Compound concentration 10.0 uM
[2] = molecular target: Adenosine receptor A3 (Homo sapiens) (UniProt P0DMS8); assay: A3 Eurofins-Cerep binding assay; design: ligand concentration 0.15 nM
[3] = molecular target: T1, GABA-A receptor; anion channel (Rattus norvegicus) (UniProt O09028+P15431+P18506+P18508+P19969+P20236+P23574+P23576+P28471+P28473+P30191+P62813+P63079+P63138+Q91ZM7+Q9ES14); assay: Inhibitor of GABA/NS/R in the Eurofins SafetyScreen44 (BI) by Radioactive Assay (Cerep_60); assay type: protein-complex assay; conditions: Compound concentration 10.0 uM
[4] = molecular target: Substance-P receptor (Homo sapiens) (UniProt P25103); assay: NK1 Eurofins-Cerep binding assay; conditions: Compound concentration 10.0 uM
[5] = molecular target: L-type calcium channel (Cav1.2, alpha-1C), CA+/VERSI/R (Rattus norvegicus, UniProt P22002); assay: Inhibitor of CA+/VERSI/R in the Eurofins SafetyScreen44 (BI) by Radioactive Assay (Old_Cerep_11); design: scale not given: the % may be the effect or the level left; conditions: compound concentration 10 uM, read-out: % Ctrl
[6] = molecular target: Substance-K receptor (Homo sapiens) (UniProt P21452); assay: Activity against NK2/H in the Eurofins SafetyScreen44 (BI) by Radioactive Assay (Old_Cerep_25); conditions: Compound concentration 10.0 uM
[7] = molecular target: 5-hydroxytryptamine receptor 6 (Homo sapiens) (UniProt P50406); assay: Activity against 5HT6/H in the Eurofins SafetyScreen44 (BI) by Others (Old_Cerep_3); conditions: Compound concentration 10.0 uM
[8] = molecular target: 5-hydroxytryptamine receptor 2C (Homo sapiens) (UniProt P28335); assay: Activity against 5HT2C/H in the Eurofins SafetyScreen44 (BI) (Cerep_1003); conditions: Compound concentration 10.0 uM
Cathepsin G = Cathepsin G (Homo sapiens, UniProt P08311); assay: CTSG inhibition assay
[9] = molecular target: D(3) dopamine receptor (Homo sapiens) (UniProt P35462); assay: D3 Eurofins-Cerep binding assay; conditions: Compound concentration 10.0 uM
[10] = molecular target: Elastase, neutrophil expressed (Cricetulus griseus, UniProt A0A3L7HHY4); assay: ELANE inhibitor assay (hamster)
[11] = molecular target: Adrenergic receptor alpha-1 (Rattus norvegicus) (UniProt P15823+P23944+P43140); assay: Inhibitor of ALPHA1/NS/R in the Eurofins SafetyScreen44 (BI) by Radioactive Assay (Old_Cerep_5); assay type: protein assay
[12] = molecular target: T1, GABA-A receptor; anion channel (Rattus norvegicus); assay: Activity against BZD/PERIPH/R in the Eurofins SafetyScreen44 (BI) by Radioactive Assay (Old_Cerep_10); assay type: protein-complex assay
[13] = molecular target: Prostaglandin E2 receptor EP4 subtype (Homo sapiens) (UniProt P35408); assay: Agonist activity in the Eurofins SafetyScreen44 (BI) against EP4/H AG by Radioactive Assay (Old_Cerep_19); conditions: Compound concentration 10.0 uM
[14] = molecular target: Neuromedin-K receptor (Homo sapiens) (UniProt P29371); assay: Agonist activity in the Eurofins SafetyScreen44 (BI) against NK3/H by Radioligand Binding (Old_Cerep_26); conditions: Compound concentration 10.0 uM
Homo sapiens [15] = species on record: Homo sapiens; assay: sigma (non-selective) Eurofins-Cerep binding assay; assay type: protein assay; conditions: Compound concentration 10.0 uM
Neutrophil elastase = Neutrophil elastase (Mus musculus, UniProt Q3UP87); assay: ELANE inhibitor assay (mouse)
[16] = molecular target: Melanocortin receptor 4 (Homo sapiens) (UniProt P32245); assay: MC4 Eurofins-Cerep binding assay; design: ligand concentration 0.05 nM; conditions: Compound concentration 10.0 uM
[17] = molecular target: 5-hydroxytryptamine receptor 1B (Rattus norvegicus) (UniProt P28564); assay: Inhibitor of 5HT1B/R in the Eurofins SafetyScreen44 (BI) by Radioactive Assay (Old_Cerep_1); conditions: Compound concentration 10.0 uM
[18] = molecular target: Prostaglandin E2 receptor EP2 subtype (Homo sapiens) (UniProt P43116); assay: Agonist activity in the Eurofins SafetyScreen44 (BI) against EP2(H) by Scintillation counting (Old_Cerep_18); conditions: Compound concentration 10.0 uM
[19] = molecular target: C-C chemokine receptor type 1 (Homo sapiens) (UniProt P32246); assay: Activity against CCR1/H in the Eurofins SafetyScreen44 (BI) (Old_Cerep_14); conditions: Compound concentration 10.0 uM
[20] = molecular target: Pituitary adenylate cyclase-activating polypeptide type I receptor (Homo sapiens) (UniProt P41586); assay: Activity against PACAP/HU in the Eurofins SafetyScreen44 (BI) by Radioactive Assay (Old_Cerep_31); conditions: Compound concentration 10.0 uM
[21] = molecular target: Prostacyclin receptor (Homo sapiens) (UniProt P43119); assay: Activity against PGI2/H in the Eurofins SafetyScreen44 (BI) by Radioactive Assay (Old_Cerep_34); conditions: Compound concentration 10.0 uM
[22] = molecular target: 5-hydroxytryptamine receptor 5A (Homo sapiens) (UniProt P47898); assay: Activity against 5HT5A/H in the Eurofins SafetyScreen44 (BI) by Radioactive Assay (Old_Cerep_2); conditions: Compound concentration 10.0 uM
[23] = molecular target: Somatostatin receptor type 5 (Mus musculus) (UniProt O08858); assay: Activity against SOMATOS/M in the Eurofins SafetyScreen44 (BI) by Radioactive Assay (Old_Cerep_36); conditions: Compound concentration 10.0 uM
[24] = molecular target: Glutamate NMDA receptor (Rattus norvegicus) (UniProt P35439+Q00959+Q00960+Q00961+Q62645+Q8VHN2+Q9R1M7); assay: PCP Eurofins-Cerep binding assay; assay type: protein-complex assay; conditions: Compound concentration 10.0 uM
[25] = molecular target: Tyrosine-protein kinase Lck (Homo sapiens) (UniProt P06239); assay: Inhibitor of LCK_CE in the Eurofins Cerep SafetyScreen44 (BI) by lanthanide chelation excitation (Cerep_2906); conditions: Compound concentration 10.0 uM
Homo sapiens [26] = species on record: Homo sapiens; assay: Agonist activity in the Eurofins Cerep SafetyScreen44 (BI) against N_NEURO_A4B2 by Radioligand Binding (Cerep_3029); assay type: protein-complex assay; conditions: Compound concentration 10.0 uM
[27] = molecular target: Prostaglandin G/H synthase 1 (Homo sapiens) (UniProt P23219); assay: Inhibitor of COX-1 in the Eurofins Cerep SafetyScreen44 (BI) by Fluorimetry (Cerep_4173); conditions: Compound concentration 10.0 uM
[28] = molecular target: Cannabinoid receptor 2 (Homo sapiens) (UniProt P34972); assay: Activity against CB2/PERIPH/H in the Eurofins Cerep SafetyScreen44 (BI) by Radioactive Assay (Cerep_37); conditions: Compound concentration 10.0 uM
[29] = molecular target: Kappa-type opioid receptor (Homo sapiens) (UniProt P41145); assay: kappa (KOP) Eurofins-Cerep binding assay; conditions: Compound concentration 10.0 uM
[30] = molecular target: Cannabinoid receptor 1 (Homo sapiens) (UniProt P21554); assay: CB1 Eurofins-Cerep binding assay; conditions: Compound concentration 10.0 uM
[31] = molecular target: Alpha-1A adrenergic receptor (Homo sapiens) (UniProt P35348); assay: Agonist activity in the Eurofins Cerep SafetyScreen44 (BI) against ALPHA1AH_ANTAG by Scintillation counting (Cerep_2338); conditions: Compound concentration 10.0 uM
[32] = molecular target: cGMP-inhibited 3',5'-cyclic phosphodiesterase 3A (Homo sapiens) (UniProt Q14432); assay: Inhibitor of PDE3A in the Eurofins Cerep SafetyScreen44 (BI) by HTRF-homogeneous time resolved fluoresce (Cerep_4072); conditions: Compound concentration 10.0 uM

Sequence of Adenosine receptor A3 (Homo sapiens) (P0DMS8 whole entry): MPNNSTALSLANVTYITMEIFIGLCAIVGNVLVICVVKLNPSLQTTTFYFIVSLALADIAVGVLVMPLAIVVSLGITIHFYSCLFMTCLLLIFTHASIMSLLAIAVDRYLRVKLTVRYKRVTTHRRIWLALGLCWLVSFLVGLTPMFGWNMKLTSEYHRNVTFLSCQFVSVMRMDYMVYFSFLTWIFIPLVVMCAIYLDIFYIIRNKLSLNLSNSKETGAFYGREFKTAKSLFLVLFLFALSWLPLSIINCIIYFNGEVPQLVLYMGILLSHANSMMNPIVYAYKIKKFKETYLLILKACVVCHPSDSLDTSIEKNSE
Sequence of Endothelin receptor type B (Homo sapiens) (P24530 whole entry): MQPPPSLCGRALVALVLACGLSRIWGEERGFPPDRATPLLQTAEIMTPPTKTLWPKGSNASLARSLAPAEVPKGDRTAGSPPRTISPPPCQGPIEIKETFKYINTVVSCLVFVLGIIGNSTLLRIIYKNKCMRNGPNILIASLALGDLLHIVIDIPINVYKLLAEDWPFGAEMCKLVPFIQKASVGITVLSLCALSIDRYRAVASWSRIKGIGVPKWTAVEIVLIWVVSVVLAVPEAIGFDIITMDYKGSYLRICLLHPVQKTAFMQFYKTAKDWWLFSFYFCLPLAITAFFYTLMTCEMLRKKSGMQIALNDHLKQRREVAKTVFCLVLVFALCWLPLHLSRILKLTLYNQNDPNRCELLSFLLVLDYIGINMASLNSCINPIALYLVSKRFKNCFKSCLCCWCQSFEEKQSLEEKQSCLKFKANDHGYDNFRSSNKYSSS
Sequence of Substance-K receptor (Homo sapiens) (P21452 whole entry): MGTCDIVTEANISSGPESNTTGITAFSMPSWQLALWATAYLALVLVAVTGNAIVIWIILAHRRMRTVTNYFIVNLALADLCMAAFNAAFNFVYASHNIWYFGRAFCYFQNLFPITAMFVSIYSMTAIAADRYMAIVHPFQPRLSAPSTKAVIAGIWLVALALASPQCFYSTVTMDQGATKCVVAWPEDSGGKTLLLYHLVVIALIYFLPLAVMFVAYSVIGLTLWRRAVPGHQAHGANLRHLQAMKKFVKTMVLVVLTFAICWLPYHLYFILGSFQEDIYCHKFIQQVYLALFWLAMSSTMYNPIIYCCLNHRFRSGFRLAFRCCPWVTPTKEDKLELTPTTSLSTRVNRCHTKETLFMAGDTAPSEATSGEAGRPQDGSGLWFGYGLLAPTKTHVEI
Sequence of Prostacyclin receptor (Homo sapiens) (P43119 whole entry): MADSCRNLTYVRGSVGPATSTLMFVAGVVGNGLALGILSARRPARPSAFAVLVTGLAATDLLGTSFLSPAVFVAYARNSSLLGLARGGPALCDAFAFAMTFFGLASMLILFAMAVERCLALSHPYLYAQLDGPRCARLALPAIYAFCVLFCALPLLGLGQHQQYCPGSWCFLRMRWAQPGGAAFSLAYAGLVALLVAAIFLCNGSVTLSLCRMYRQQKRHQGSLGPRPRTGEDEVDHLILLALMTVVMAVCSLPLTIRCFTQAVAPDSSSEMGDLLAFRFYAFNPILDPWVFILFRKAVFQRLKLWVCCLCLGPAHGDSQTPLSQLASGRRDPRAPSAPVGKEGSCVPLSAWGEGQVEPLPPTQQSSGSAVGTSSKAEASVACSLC
Sequence of Kappa-type opioid receptor (Homo sapiens) (P41145 whole entry): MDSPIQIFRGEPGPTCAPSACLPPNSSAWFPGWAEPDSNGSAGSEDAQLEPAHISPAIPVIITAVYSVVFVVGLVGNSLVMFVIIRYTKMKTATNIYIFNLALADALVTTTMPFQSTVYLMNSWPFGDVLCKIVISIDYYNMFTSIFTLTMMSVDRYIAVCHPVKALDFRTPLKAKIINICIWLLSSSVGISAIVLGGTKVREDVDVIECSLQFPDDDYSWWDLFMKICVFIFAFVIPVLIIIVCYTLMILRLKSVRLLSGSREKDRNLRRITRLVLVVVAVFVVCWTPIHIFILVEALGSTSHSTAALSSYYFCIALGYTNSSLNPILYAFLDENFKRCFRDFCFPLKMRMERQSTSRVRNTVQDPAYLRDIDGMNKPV
Sequence of Substance-P receptor (Homo sapiens) (P25103 whole entry): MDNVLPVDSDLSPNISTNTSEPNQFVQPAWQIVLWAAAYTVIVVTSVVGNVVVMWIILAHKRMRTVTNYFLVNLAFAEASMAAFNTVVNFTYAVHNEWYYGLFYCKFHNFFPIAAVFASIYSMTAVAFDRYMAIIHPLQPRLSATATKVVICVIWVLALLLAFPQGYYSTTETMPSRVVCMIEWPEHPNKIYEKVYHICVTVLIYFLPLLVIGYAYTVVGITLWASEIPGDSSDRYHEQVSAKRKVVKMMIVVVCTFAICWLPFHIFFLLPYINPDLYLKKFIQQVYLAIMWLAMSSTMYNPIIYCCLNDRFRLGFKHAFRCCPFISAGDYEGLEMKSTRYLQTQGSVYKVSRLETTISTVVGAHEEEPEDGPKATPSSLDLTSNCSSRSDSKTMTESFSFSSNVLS
Sequence of Cannabinoid receptor 2 (Homo sapiens) (P34972 whole entry): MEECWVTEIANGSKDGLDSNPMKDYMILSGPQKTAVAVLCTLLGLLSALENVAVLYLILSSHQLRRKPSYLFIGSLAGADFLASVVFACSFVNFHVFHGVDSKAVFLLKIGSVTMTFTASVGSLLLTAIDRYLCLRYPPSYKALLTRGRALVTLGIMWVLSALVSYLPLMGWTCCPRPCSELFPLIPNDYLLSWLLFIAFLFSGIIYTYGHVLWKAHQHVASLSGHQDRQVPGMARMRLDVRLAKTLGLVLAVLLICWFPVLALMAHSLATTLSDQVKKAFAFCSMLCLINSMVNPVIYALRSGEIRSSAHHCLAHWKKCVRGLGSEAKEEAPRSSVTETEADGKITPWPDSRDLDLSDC
Sequence of Alpha-1A adrenergic receptor (Homo sapiens) (P35348 whole entry): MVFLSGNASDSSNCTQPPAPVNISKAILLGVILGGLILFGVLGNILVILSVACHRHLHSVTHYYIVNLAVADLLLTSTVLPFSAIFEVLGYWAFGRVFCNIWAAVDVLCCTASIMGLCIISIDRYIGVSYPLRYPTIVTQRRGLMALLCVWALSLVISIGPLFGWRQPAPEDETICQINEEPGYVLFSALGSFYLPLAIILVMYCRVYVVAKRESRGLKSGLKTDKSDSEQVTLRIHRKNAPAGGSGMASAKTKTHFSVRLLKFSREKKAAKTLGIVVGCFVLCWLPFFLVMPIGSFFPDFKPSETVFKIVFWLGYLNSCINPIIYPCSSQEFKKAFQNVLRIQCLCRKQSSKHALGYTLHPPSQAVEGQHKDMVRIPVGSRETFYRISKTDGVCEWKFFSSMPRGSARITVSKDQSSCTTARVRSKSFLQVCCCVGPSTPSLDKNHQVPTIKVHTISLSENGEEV
Sequence of Neuromedin-K receptor (Homo sapiens) (P29371 whole entry): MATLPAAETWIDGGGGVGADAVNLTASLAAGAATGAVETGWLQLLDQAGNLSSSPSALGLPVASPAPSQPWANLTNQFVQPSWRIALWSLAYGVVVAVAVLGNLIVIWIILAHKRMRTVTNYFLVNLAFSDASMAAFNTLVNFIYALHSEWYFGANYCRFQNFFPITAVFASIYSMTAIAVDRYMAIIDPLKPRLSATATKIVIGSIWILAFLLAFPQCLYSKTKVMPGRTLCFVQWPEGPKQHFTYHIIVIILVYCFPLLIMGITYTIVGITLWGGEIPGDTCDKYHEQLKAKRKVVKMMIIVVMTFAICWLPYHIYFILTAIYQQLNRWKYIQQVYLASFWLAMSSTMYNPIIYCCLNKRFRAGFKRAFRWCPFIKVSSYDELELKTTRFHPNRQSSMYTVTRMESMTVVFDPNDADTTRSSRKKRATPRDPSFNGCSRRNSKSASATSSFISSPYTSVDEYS
Sequence of Melanocortin receptor 4 (Homo sapiens) (P32245 whole entry): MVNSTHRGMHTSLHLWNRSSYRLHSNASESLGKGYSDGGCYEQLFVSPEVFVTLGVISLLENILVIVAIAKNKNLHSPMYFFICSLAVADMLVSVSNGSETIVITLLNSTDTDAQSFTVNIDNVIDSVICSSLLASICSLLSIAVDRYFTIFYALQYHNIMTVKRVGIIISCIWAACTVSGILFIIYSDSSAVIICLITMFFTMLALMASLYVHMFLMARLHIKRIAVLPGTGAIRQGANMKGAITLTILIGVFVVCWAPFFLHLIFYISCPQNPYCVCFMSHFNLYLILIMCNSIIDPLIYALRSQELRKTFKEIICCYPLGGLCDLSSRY
Sequence of C-C chemokine receptor type 1 (Homo sapiens) (P32246 whole entry): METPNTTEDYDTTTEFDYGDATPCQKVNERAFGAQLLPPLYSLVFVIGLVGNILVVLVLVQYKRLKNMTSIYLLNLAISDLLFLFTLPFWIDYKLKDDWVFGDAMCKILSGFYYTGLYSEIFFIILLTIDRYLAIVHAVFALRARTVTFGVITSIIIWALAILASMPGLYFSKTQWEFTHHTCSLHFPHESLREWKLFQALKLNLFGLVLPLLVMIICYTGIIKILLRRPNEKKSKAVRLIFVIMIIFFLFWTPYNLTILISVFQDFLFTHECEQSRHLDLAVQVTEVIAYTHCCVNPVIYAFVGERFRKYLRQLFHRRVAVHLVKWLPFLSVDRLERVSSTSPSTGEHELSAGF
Sequence of 5-hydroxytryptamine receptor 1B (Rattus norvegicus) (P28564 whole entry): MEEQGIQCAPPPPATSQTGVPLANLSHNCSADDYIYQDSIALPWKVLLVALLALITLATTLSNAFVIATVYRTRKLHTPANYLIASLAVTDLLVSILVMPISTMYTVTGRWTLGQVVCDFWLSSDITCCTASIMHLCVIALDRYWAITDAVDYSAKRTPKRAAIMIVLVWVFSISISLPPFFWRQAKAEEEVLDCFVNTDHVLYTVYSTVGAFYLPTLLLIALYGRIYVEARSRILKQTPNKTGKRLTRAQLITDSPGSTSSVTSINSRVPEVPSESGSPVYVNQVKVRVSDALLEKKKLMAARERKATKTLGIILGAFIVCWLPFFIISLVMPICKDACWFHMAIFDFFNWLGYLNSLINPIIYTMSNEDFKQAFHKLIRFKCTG

SMILES: CC(C)(O)CNC(=O)N1C(=O)N(c2cccc(C(F)(F)F)c2)C2=C(C(=O)CC2)[C@H]1c1ccc(C#N)cc1
- residual activity [1]: 92%
- residual activity ([2]; Compound concentration 10.0 uM): 92%
- residual activity ([2]; Compound concentration 30.0 uM): 80%
- residual activity [3]: 103%
- residual activity [4]: 115%
- activity at 10 µM [5]: 102% (not active)
- residual activity [6]: 103%
- residual activity [7]: 93%
- residual activity [8]: 94%
- IC50 (Cathepsin G): > 10000 nM (not active)
- residual activity [9]: 96%
- IC50 [10]: 4 nM (active)
- residual activity ([11]; Compound concentration 10.0 uM): 97%
- residual activity ([11]; Compound concentration 30.0 uM): 103%
- residual activity ([12]; Compound concentration 10.0 uM): 100%
- residual activity ([12]; Compound concentration 30.0 uM): 93%
- residual activity [13]: 77%
- residual activity [14]: 102%
- residual activity (Homo sapiens [15]): 72%
- IC50 (Neutrophil elastase): 12 nM (active)
- residual activity [16]: 92%
- residual activity [17]: 136%
- residual activity [18]: 93%
- residual activity [19]: 89%
- residual activity [20]: 122%
- residual activity [21]: 123%
- residual activity [22]: 98%
- residual activity [23]: 114%
- residual activity [24]: 104%

SMILES: CC(C)(O)CNC(=O)N1C(=O)N(c2cccc(C(F)(F)F)c2)C2=C(C(=O)CC2)[C@@H]1c1ccc(C#N)cc1
- residual activity [25]: 92%
- residual activity (Homo sapiens [26]): 115%
- residual activity [27]: 105%
- residual activity [28]: 83%
- residual activity [29]: 94%
- residual activity [30]: 88%
- residual activity [31]: 102%
- residual activity [32]: 97%
